According to US20100216661A1, “Diagnostic Assay” (priority 2007, published 2010):

Assays:
[1] = test system: anti-RhD monoclonal antibody T10 (LHM76/55); assay: Biopanning of phage-peptide libraries with anti-RhD T10; assay type: binding, Human; conditions: for Panning Antibody (antibody that selected the phage-peptide in biopanning): biopanning of phage-peptide libraries with anti-RhD monoclonal T10
Source text: (§1) Three different phage libraries from New England Biolabs. (Ph.D. 7 and Ph.D. 12 displaying linear 7- and 12-mer peptides, respectively and Ph.D. C7C displaying 7-mer peptides constrained by a disulphide bridge at their termini) and a linear 15mer library (kindly provided by Prof. George P. Smith, University of Missouri) were used in biopanning experiments with 10 different monoclonal antibodies and a polyclonal preparation (Table 1).
(§2) For each target antibody/library combination, a separate well of a 96-well Immulon 4 flat-bottomed ELISA plate (Thermo Labsystems) was coated with 5 μg of antibody in 150 μl ELISA coating buffer (15 mM Na2CO3, 35 mM NaHCO3, pH9.6). Plates were sealed and incubated at 4° C. overnight. Unbound antibody was discarded and 350 μl of blocking buffer (0.1M NaHCO3/3% skimmed milk powder) was added to each well. Plates were sealed and incubated for 1 hour at 4° C. The blocking buffer was removed and the wells were washed six times with 300 μl TBS/0.1% Tween 20. Approximately 2×10^11 plaque forming units (pfu) in 100 μl TBS/0.1% Tween 20 were added to each well and the plates were incubated at room temperature for 1 hour. Wells were washed ten times with 300 μl TBS/0.1% Tween 20. Bound phage were eluted by incubation with 100 μl of 0.2M glycine-HCl/BSA, pH2.2 (1 mg/ml) for 10 minutes, then neutralised with 15 μl of 1M Tris-HCL (pH9.1). An aliquot of the Round 1 eluate was removed and titred. The remainder of the eluted phage were amplified by infection of E. coli ER2538 cells for 4.5 hours at 37° C. The cultures were centrifuged for 10 minutes at 10,000 rpm at 4° C. The supernatants were recovered, ⅙ volume PEG/NaCl (20% polyethylene glycol 8000; 2.5M NaCl) added, then incubated overnight at 4° C. The PEG-precipitated phage were centrifuged at 10,000 rpm for 15 minutes at 4° C. The supernatant was removed and the phage pellet resuspended in 200 μl TBS. Two further rounds of panning were undertaken and approximately 2×10^11 pfu of the Round 2 or Round 3 amplified eluates were used as input phage. Round 3 eluates were titrated but not amplified. Individual plaques were amplified and subjected to PCR amplification, prior to DNA sequence analysis. The specificity of peptide-antibody binding was subsequently determined using both phage ELISA and SPOTs techniques.

[2] = test system: polyclonal anti-RhD preparation (Human Anti-D Ig); assay: Biopanning of phage-peptide libraries with polyclonal anti-RhD; assay type: binding; conditions: for Panning Antibody (antibody that selected the phage-peptide in biopanning): biopanning of phage-peptide libraries with polyclonal anti-RhD preparation
Source text: as §1, §2

[3] = test system: anti-RhD monoclonal antibody T22 (LHM 169/80); assay: Biopanning of phage-peptide libraries with anti-RhD T22; assay type: binding, Human
Source text: as §1, §2

[4] = phage-peptide libraries, three rounds of panning

## RhD 52 (HSSWYIQHFPPL)
[1]
  Panning Antibody (antibody that selected the phage-peptide in biopanning): RhD T10

## RhD 97 (FHWHLQPQLWSY)
[2]
  Panning Antibody (antibody that selected the phage-peptide in biopanning): RhD

## RhD 35 (VYALGCWPICHK)
[3]
  Panning Antibody (antibody that selected the phage-peptide in biopanning): RhD T22

## RhD 93 (FHRPYYWPPTPL)
[2]
  Panning Antibody (antibody that selected the phage-peptide in biopanning): RhD

## RhD 29 (FHWPRSWVTWQS)
[3]
  Panning Antibody (antibody that selected the phage-peptide in biopanning): RhD T22

## RhD 84 (FHENWSTRPTTR)
[2]
  Panning Antibody (antibody that selected the phage-peptide in biopanning): RhD

## RhD 47 (SMSSMLLAAQTV)
[1]
  Panning Antibody (antibody that selected the phage-peptide in biopanning): RhD T10

## RhD 48 (QSHYRHISPAQV)
[1]
  Panning Antibody (antibody that selected the phage-peptide in biopanning): RhD T10

## RhD 49 (SMSQPKSQVNAH)
[1]
  Panning Antibody (antibody that selected the phage-peptide in biopanning): RhD T10

## RhD 64 (FHRHWWPPTLST)
[1]
  Panning Antibody (antibody that selected the phage-peptide in biopanning): RhD T10

## RhD 60 (HAAFEPRGDVRHTLL)
[1]
  Panning Antibody (antibody that selected the phage-peptide in biopanning): RhD T10

## RhD 70 (LPWYQLT)
[1]
  Panning Antibody (antibody that selected the phage-peptide in biopanning): RhD T10

## RhD 19 (WVHLQSP)
[3]
  Panning Antibody (antibody that selected the phage-peptide in biopanning): RhD T22

## RhD 66 (FHWRWSTFPEYP)
[1]
  Panning Antibody (antibody that selected the phage-peptide in biopanning): RhD T10

## RhD 24 (FHWWPRTQDPHR)
[3]
  Panning Antibody (antibody that selected the phage-peptide in biopanning): RhD T22

## RhD 28 (NDYSDSNQVPAS)
[3]
  Panning Antibody (antibody that selected the phage-peptide in biopanning): RhD T22

## RhD 98 (LHREWIYPYLIS)
[2]
  Panning Antibody (antibody that selected the phage-peptide in biopanning): RhD

## RhD 63 (RNALHSLRTLSSSWV)
[1]
  Panning Antibody (antibody that selected the phage-peptide in biopanning): RhD T10

## RhD 51 (ESLSTDTYAILL)
[1]
  Panning Antibody (antibody that selected the phage-peptide in biopanning): RhD T10

## RhD 33 (AMDCFPICLWNP)
[3]
  Panning Antibody (antibody that selected the phage-peptide in biopanning): RhD T22

## RhD 91 (ALPELSSLPESAR)
[2]
  Panning Antibody (antibody that selected the phage-peptide in biopanning): RhD

## Rh0 43 (YYQRAPY)
[1]
  Panning Antibody (antibody that selected the phage-peptide in biopanning): RhD T10

## RhD 38 (GNWLFNSCYPLCFPL)
[3]
  Panning Antibody (antibody that selected the phage-peptide in biopanning): RhD T22

## RhD52: RhD peptide mimotope, Table 4 (HSSWYIQHFPPL)
[2]; [4]
  Selection by biopanning with polyclonal anti-RhD preparation: selected
[1]; [4]
  Selection by biopanning with anti-RhD monoclonal antibody T10: selected

## RhD 45 (WHWQWTPWSIQP)
[1]
  Panning Antibody (antibody that selected the phage-peptide in biopanning): RhD T10

## RhD 53 (STYLNGPTGVDL)
[1]
  Panning Antibody (antibody that selected the phage-peptide in biopanning): RhD T10

## RhD 80 (IPWYKIT)
[1]
  Panning Antibody (antibody that selected the phage-peptide in biopanning): RhD T10

## RhD 36 (HHVFTPNCYPIC)
[3]
  Panning Antibody (antibody that selected the phage-peptide in biopanning): RhD T22

## RhD 40 (QLLCFPICRPEPPVS)
[3]
  Panning Antibody (antibody that selected the phage-peptide in biopanning): RhD T22

## RhD 75 (TQWYQIA)
[1]
  Panning Antibody (antibody that selected the phage-peptide in biopanning): RhD T10

## RhD 30 (HLSSRHLFVPLS)
[3]
  Panning Antibody (antibody that selected the phage-peptide in biopanning): RhD T22

## RhD 31 (TITDCYPICVSP)
[3]
  Panning Antibody (antibody that selected the phage-peptide in biopanning): RhD T22

## RhD 99 (GQKTHNPFHLHP)
[2]
  Panning Antibody (antibody that selected the phage-peptide in biopanning): RhD

## Rh0 37 (WHWSSLSWPALP)
[3]
  Panning Antibody (antibody that selected the phage-peptide in biopanning): RhD T22

## RhD 78 (LPWYATP)
[1]
  Panning Antibody (antibody that selected the phage-peptide in biopanning): RhD T10

## RhD 83 (FHSDWPGQTFTW)
[2]
  Panning Antibody (antibody that selected the phage-peptide in biopanning): RhD

## RhD 18 (WGLWSTP)
[3]
  Panning Antibody (antibody that selected the phage-peptide in biopanning): RhD T22

## RhD 74 (FWWQVPA)
[1]
  Panning Antibody (antibody that selected the phage-peptide in biopanning): RhD T10

## RhD 82 (FHANWPQSARDV)
[2]
  Panning Antibody (antibody that selected the phage-peptide in biopanning): RhD

## RhD 56 (VPPWVSVRTGPG)
[1]
  Panning Antibody (antibody that selected the phage-peptide in biopanning): RhD T10

## RhD 42 (WYHKAPY)
[1]
  Panning Antibody (antibody that selected the phage-peptide in biopanning): RhD T10

## RhD 105 (APPYPGPLPLSL)
[2]
  Panning Antibody (antibody that selected the phage-peptide in biopanning): RhD

## RhD 103 (SVSVGMKPSPRP)
[2]
  Panning Antibody (antibody that selected the phage-peptide in biopanning): RhD

## RhD 22 (LLGLTET)
[3]
  Panning Antibody (antibody that selected the phage-peptide in biopanning): RhD T22

## RhD 62 (LWRLRGGSFPVISHG)
[1]
  Panning Antibody (antibody that selected the phage-peptide in biopanning): RhD T10

## RhD 73 (FHENWPS)
[1]
  Panning Antibody (antibody that selected the phage-peptide in biopanning): RhD T10

## RhD 77 (TPLSKST)
[1]
  Panning Antibody (antibody that selected the phage-peptide in biopanning): RhD T10
